Where “and” joins values, the source holds several entries; their conditions need not be identical. Identical values can stand only once. Some results are limits rather than exact numbers.

Among the data in PubChem BioAssay AID1918940 (Molecular Pharmacology Branch, DTP, NCI, 2023) are IC50 and viability, T/C values, retold here.

This assay has as its system NCI-H211 complex spheroid viability. Briefly: Anticancer human tumor NCI-H211 cell line growth inhibition [LSD1].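 For all read-outs here: luminescent viability read after seven days of drug exposure.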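 For viability, T/C: 100% = DMSO vehicle control viability.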 As to conditions: for viability, T/C: stronger effect = lower value. In a few lines:
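Complex spheroids of tumor cells with HUVEC and human MSCs, exposed to iadademstat combined with other agents. Each agent tested in half-log steps from near clinical Cmax (else 10 microM top), DMSO ≤0.25%.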

For `CC(C)CC(NC(=O)CNC(=O)c1cc(Cl)ccc1Cl)B1OC(=O)CC(CC(=O)O)(C(=O)O)O1` (configuration not stated) + NC1CCC(NC2CC2c2ccccc2)CC1, the IC50 was 15.4 nM (curve of first compound, second compound 0.1 µM); 18 nM (curve of first compound, second compound 0.316 µM); 15.3 nM (curve of first compound, second compound 1 µM); 11.8 nM (curve of first compound, second compound 3.16 µM); less than 0.316 nM (curve of first compound, second compound 10 µM). Further, the viability, T/C (second compound 0.1 µM, first compound 0.000316 µM) was 81.6%; the viability, T/C (second compound 0.1 µM, first compound 0.001 µM) was 90.2%; the viability, T/C (second compound 0.1 µM, first compound 0.00316 µM) is 103%; the viability, T/C (second compound 0.1 µM, first compound 0.01 µM) is 65.1%; the viability, T/C (second compound 0.1 µM, first compound 0.0316 µM) is 22.5%; the viability, T/C (second compound 0.1 µM, first compound 0.1 µM) was 7.53%. The viability, T/C reads like this: (second compound 0.316 µM, first compound 0.000316 µM) 81.5%; (second compound 0.316 µM, first compound 0.001 µM) 93.3%; (second compound 0.316 µM, first compound 0.00316 µM) 111%; (second compound 0.316 µM, first compound 0.01 µM) 76.9%; (second compound 0.316 µM, first compound 0.0316 µM) 23.5%; (second compound 0.316 µM, first compound 0.1 µM) 7.18%. The viability, T/C was 79.3% (second compound 1 µM, first compound 0.000316 µM); 85% (second compound 1 µM, first compound 0.001 µM); 109% (second compound 1 µM, first compound 0.00316 µM); 65.3% (second compound 1 µM, first compound 0.01 µM); 21.4% (second compound 1 µM, first compound 0.0316 µM); 6.25% (second compound 1 µM, first compound 0.1 µM). Further, the viability, T/C (second compound 3.16 µM, first compound 0.000316 µM) is 59.8%; the viability, T/C (second compound 3.16 µM, first compound 0.001 µM) was 65%; the viability, T/C (second compound 3.16 µM, first compound 0.00316 µM) is 95.6%; the viability, T/C (second compound 3.16 µM, first compound 0.01 µM) is 53%; the viability, T/C (second compound 3.16 µM, first compound 0.0316 µM) was 18.1%; the viability, T/C (second compound 3.16 µM, first compound 0.1 µM) was 5.75%. For the same molecule, the viability, T/C was 44.9% (second compound 10 µM, first compound 0.000316 µM); 37.5% (second compound 10 µM, first compound 0.001 µM); 51.2% (second compound 10 µM, first compound 0.00316 µM); 35.5% (second compound 10 µM, first compound 0.01 µM); 12% (second compound 10 µM, first compound 0.0316 µM); 2.35% (second compound 10 µM, first compound 0.1 µM).

On to `CC[C@@]1(O)C(=O)OCc2c1cc1n(c2=O)Cc2cc3c(CN(C)C)c(O)ccc3nc2-1`, for which the viability, T/C reads like this: (compound 0.000316 µM) 66.6% and 67%; (compound 0.001 µM) 11.4% and 13.2%; (compound 0.00316 µM) 2.8% and 5.22%; (compound 0.01 µM) 2.3% and 5.28%; (compound 0.0316 µM) 2.56% and 5.04%; (compound 0.1 µM) 0.87% and 3.38%. The IC50 (curve of compound) was 0.447 nM and 0.455 nM.

For orientation: IC50 means the concentration that inhibits the measured activity by half. The viability, T/C is the result in the treated group divided by that in the control group, in per cent.
